According to ChEMBL document CHEMBL1132893, “The design and synthesis of potent cyclic peptide VCAM-VLA-4 antagonists incorporating an achiral Asp-Pro mimetic” (Bioorg Med Chem Lett, 2000):

What was measured:
Integrin alpha-4 [1] = target: T1, Integrin alpha-4 (Homo sapiens, UniProt P13612); experiment: Inhibition of VLA-4 binding to recombinant human VCAM using Solid phase assay
T1 sequence (P13612 whole entry): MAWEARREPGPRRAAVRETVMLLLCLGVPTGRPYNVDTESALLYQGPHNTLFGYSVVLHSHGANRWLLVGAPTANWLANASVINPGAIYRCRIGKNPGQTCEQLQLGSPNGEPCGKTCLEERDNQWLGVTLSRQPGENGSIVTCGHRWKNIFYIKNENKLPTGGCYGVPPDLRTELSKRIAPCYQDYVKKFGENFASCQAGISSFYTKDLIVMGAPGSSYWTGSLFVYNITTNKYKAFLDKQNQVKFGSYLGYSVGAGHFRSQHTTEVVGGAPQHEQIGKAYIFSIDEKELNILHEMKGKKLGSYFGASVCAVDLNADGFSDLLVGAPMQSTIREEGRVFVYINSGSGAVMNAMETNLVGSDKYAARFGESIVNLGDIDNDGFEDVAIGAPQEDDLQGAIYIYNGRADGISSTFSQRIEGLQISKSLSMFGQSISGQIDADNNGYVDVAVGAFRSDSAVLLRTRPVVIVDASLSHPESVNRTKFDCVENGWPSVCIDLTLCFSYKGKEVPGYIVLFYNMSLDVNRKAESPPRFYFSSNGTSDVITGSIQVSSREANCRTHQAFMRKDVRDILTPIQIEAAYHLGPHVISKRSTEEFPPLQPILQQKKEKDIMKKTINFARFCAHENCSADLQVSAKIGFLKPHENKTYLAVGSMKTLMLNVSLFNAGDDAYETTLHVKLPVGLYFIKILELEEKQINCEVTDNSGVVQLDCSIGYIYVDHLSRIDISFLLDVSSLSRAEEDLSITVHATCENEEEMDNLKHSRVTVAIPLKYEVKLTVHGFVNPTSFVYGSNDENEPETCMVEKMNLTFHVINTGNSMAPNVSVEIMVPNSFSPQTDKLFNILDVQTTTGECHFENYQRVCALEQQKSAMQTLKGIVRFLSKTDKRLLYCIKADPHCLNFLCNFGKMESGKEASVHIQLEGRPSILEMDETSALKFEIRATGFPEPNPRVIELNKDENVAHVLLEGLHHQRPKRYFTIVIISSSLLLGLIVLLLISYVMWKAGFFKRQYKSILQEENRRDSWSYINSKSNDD

Integrin alpha-4 [2] = target: T1, Integrin alpha-4; experiment: Inhibition of VLA-4 binding to recombinant human VCAM using Ramos cell assay; type: cell-based

SMILES | IC50 (Integrin alpha-4 [1]) | IC50 (Integrin alpha-4 [2])
CC1(C)CCNC(=O)[C@@H](NC(=O)[C@@H](N)Cc2ccc(O)cc2)CSSC[C@@H](C(=O)O)NC1=O | 112 nM | 
N[C@@H](Cc1ccc(O)cc1)C(=O)N[C@H]1CSSC[C@@H](C(=O)O)NC(=O)C2(CCCC2)CCCNC1=O | 19 nM | 480 nM
N[C@@H](Cc1ccc(O)cc1)C(=O)N[C@H]1CSSC[C@@H](C(=O)O)NC(=O)C2(CCCC2)CCNC1=O |  | 24 nM
CCC1(CC)CCNC(=O)[C@@H](NC(=O)[C@@H](N)Cc2ccc(O)cc2)CSSC[C@@H](C(=O)O)NC1=O | 3.9 nM | 
CC(=O)N[C@@H](Cc1ccc(O)cc1)C(=O)N[C@H]1CSSC[C@@H](C(=O)O)NC(=O)C2(CCCC2)CCNC1=O | 0.7 nM | 12 nM
N[C@@H](Cc1ccc(O)cc1)C(=O)N[C@H]1CSSC[C@@H](C(=O)O)NC(=O)C2(CCCC2)CNC1=O | 5 nM | 
